# Assay results reported in the supplement of paper PMC11208160.
# Assay: recombinant UMI read abundance after kanamycin selection (control-corrected) (log10(CPM+1)); higher = more efficient recombination; extreme values may be limits of the assay; sequences stand for … in AGTGCAGAGAAAATCGGCCAGTTTTCTCTGCCTGCAGTCCGCATGCCGTGGGACCCCTTGGGTTCTAACCTGTTGCCTAGATTTATGCAGCGGACTGCCTTTCTCCCAAAGTGATAAACCGG…AGGTTGGTTTCACT; site = the 11-nt donor
# How it was run: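 The measure is log10(CPM+1) for recombinant UMIs. These were PCR-amplified across the donor–target junction and sequenced after Escherichia coli carrying a donor and donor-binding-loop pair library and a target plasmid with T7-inducible IS621 bridge recombinase was plated on IPTG (0.07 mM) plus kanamycin or unselected. CPM were averaged over two replicates and scaled by control-derived factors.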
# 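Further: IS621 bridge recombinase in Escherichia coli cells against a fixed T5 target plasmid.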
row,Sequence,recombinant UMI read abundance (log10)
1,CTTCTGCCATGGACCGGTTTTCCCGGTAATCCGTATTTGGG (site CTTCTGCCTCC),0.0114
2,GACTTGGCATGGACCGGTTTTCCCGGTAATCCGTATTTGGA (site AACTTGGCTTC),0.227
3,CGAGTACCATGGACCGGTTTTCCCGGTAATCCGTATTTGAC (site CTAGTATCTGT),0
4,CAAGTCACATGGACCGGTTTTCCCGGTAATCCGTATTTGGG (site CAAGGCACTCC),0.0072
5,AATGTGTCATGGACCGGTTTTCCCGGTAATCCGTATTTGAC (site AATGTGTCTAT),0.00893
6,TACAAACCATGGACCGGTTTTCCCGGTAATCCGTATTTGGT (site GACAAACCTAC),0
7,TACAAACCATGGACCGGTTTTCCCGGTAATCCGTATTTGGT (site AACAAACCTAC),0
8,CAAGTCACATGGACCGGTTTTCCCGGTAATCCGTATTTGGG (site CAAGTCGCTCC),0.0204
9,TATTTGCCATGGACCGGTTTTCCCGGTAATCCGTATTTGTG (site TATTTGTCTCA),0.0226
10,CCGTGTACATGGACCGGTTTTCCCGGTAATCCGTATTTGCT (site CCGTTTACTAG),0
11,CAATTTCCATGGACCGGTTTTCCCGGTAATCCGTATTTGCT (site CAATTACCTAG),0
12,AGCCTAGCATGGACCGGTTTTCCCGGTAATCCGTATTTGTT (site AGACTAGCTAA),0.00397
13,GATTGGACATGGACCGGTTTTCCCGGTAATCCGTATTTGAC (site GATTGGACTAT),0.0111
14,AGCATTTCATGGACCGGTTTTCCCGGTAATCCGTATTTGAC (site AGCTTTTCTGT),0.236
15,ATCCAGGCATGGACCGGTTTTCCCGGTAATCCGTATTTGAG (site ATCCAAGCTCT),0.547
16,TAGCTATCATGGACCGGTTTTCCCGGTAATCCGTATTTGAA (site TAGCTATCTTT),2.02
17,TTACACTCATGGACCGGTTTTCCCGGTAATCCGTATTTGAT (site TTACACTCTAT),2.95
18,TTCGCGGCATGGACCGGTTTTCCCGGTAATCCGTATTTGCT (site TTCGCGGCTAG),0.587
19,TCCACAGCATGGACCGGTTTTCCCGGTAATCCGTATTTGCG (site TCCACCGCTCG),0.00793

row,Sequence,recombinant UMI read abundance (log10)
1,TCATGATCATGGACCGGTTTTCCCGGTAATCCGTATTTGCC (site TCATGATCTGG),0.807
2,AGAGGATCATGGACCGGTTTTCCCGGTAATCCGTATTTGCA (site AGAGGATCTTG),2.04
3,TGCGAGGCATGGACCGGTTTTCCCGGTAATCCGTATTTGGT (site TGCGAGGCTAC),0.0084
4,GGCAATCCATGGACCGGTTTTCCCGGTAATCCGTATTTGAA (site CGCAATCCTTT),0
5,CCCTTCTCATGGACCGGTTTTCCCGGTAATCCGTATTTGGG (site GCCTTCTCTCC),0.00558
6,CGTACAACATGGACCGGTTTTCCCGGTAATCCGTATTTGGT (site CGTACAACTAC),1.09
7,GTTTCGACATGGACCGGTTTTCCCGGTAATCCGTATTTGTC (site GTTTCGACTGA),0.157
8,TGTTCCCCATGGACCGGTTTTCCCGGTAATCCGTATTTGTT (site TGTTCCCCTGA),0
9,GTAGACGCATGGACCGGTTTTCCCGGTAATCCGTATTTGCG (site GTAGCCGCTCG),0.0374
10,TGCTAGGCATGGACCGGTTTTCCCGGTAATCCGTATTTGTT (site TGCTAGGCTAG),0.00242
11,AGAAAGGCATGGACCGGTTTTCCCGGTAATCCGTATTTGAT (site AGAAAGGCTAC),0
12,ACAGTATCATGGACCGGTTTTCCCGGTAATCCGTATTTGCA (site TCAGTATCTCG),0.00474
13,AATGTAACATGGACCGGTTTTCCCGGTAATCCGTATTTGCT (site AATGTAACTTG),0.00409
14,GTAGATTCATGGACCGGTTTTCCCGGTAATCCGTATTTGTT (site GCAGATTCTAA),1.63
15,CTAGAATCATGGACCGGTTTTCCCGGTAATCCGTATTTGAG (site CTAGTATCTGT),0
16,CCCTAGCCATGGACCGGTTTTCCCGGTAATCCGTATTTGCC (site CCATAGCCTGG),0
17,CTCTACACATGGACCGGTTTTCCCGGTAATCCGTATTTGAT (site CTCTACACTAA),0.0183
18,GGTCCATCATGGACCGGTTTTCCCGGTAATCCGTATTTGTA (site GGTCCATCTTA),0.459
19,GACAAACCATGGACCGGTTTTCCCGGTAATCCGTATTTGGC (site GACAAACCTAC),0

row,Sequence,recombinant UMI read abundance (log10)
1,TGTTCACCATGGACCGGTTTTCCCGGTAATCCGTATTTGAC (site TGTACACCTGT),0
2,CAGGCAGCATGGACCGGTTTTCCCGGTAATCCGTATTTGCT (site CAGGCAGCTAG),1.92
3,GGCCTCCCATGGACCGGTTTTCCCGGTAATCCGTATTTGTT (site GGCCGCCCTAA),0.0206
4,TTGGTCACATGGACCGGTTTTCCCGGTAATCCGTATTTGAA (site TTGGTCACTTT),0.29
5,TAGGCATCATGGACCGGTTTTCCCGGTAATCCGTATTTGCG (site TAGGTATCTCG),0.449
6,GAGGTGGCATGGACCGGTTTTCCCGGTAATCCGTATTTGGC (site GAGGTGGCTGC),2.13
7,CCCATATCATGGACCGGTTTTCCCGGTAATCCGTATTTGTC (site CCCACATCTGA),0
8,GCGTTCTCATGGACCGGTTTTCCCGGTAATCCGTATTTGAA (site GCGTTCTCTTT),2.47
9,GCTGTTCCATGGACCGGTTTTCCCGGTAATCCGTATTTGGT (site GCTGTTCCTAC),0
10,TGCTACGCATGGACCGGTTTTCCCGGTAATCCGTATTTGGT (site TGCTAAGCTAC),0.00535
11,TATCTCGCATGGACCGGTTTTCCCGGTAATCCGTATTTGCA (site TATCTCGCTTG),0.374
12,AGCTTGCCATGGACCGGTTTTCCCGGTAATCCGTATTTGGC (site AGCTTGCCTGC),0
13,TAGGTAGCATGGACCGGTTTTCCCGGTAATCCGTATTTGAA (site TAGCTAGCTTT),0.00863
14,ACAGTGTCATGGACCGGTTTTCCCGGTAATCCGTATTTGCA (site ACAGTCTCTTG),2
15,GCTTGCCCATGGACCGGTTTTCCCGGTAATCCGTATTTGAT (site GTTTGCCCTAT),0.00461
16,TACTCGACATGGACCGGTTTTCCCGGTAATCCGTATTTGCT (site TACTCGACTAG),1.49
17,GCTTGCCCATGGACCGGTTTTCCCGGTAATCCGTATTTGAT (site GATTGCCCTAT),0.0145
18,GTCAAACCATGGACCGGTTTTCCCGGTAATCCGTATTTGGT (site GGCAAACCTAC),0
19,CCATCTACATGGACCGGTTTTCCCGGTAATCCGTATTTGTG (site ACATCTACTCA),0.0369
